Data from patent publication US12123010B2, “Plants having increased tolerance to herbicides” (BASF SE, priority 2017, dated 2024).
Several values for one entry are separate records, joined by “and”; a condition that tells them apart may be missing. Equal values may be shown once. Read-outs that look alike come from different tables or passages of the source.

How the values were obtained:
[1] = target: Variant PPO Enzyme R128A, F420V (Amaranthus PPO2) (Amaranthus tuberculatus, UniProt Q0NZW9, F420V/R128A); assay: biochemical; type: biochemical
Chain of Variant PPO Enzyme R128A, F420V (Amaranthus PPO2) (Q0NZW9 1-534 F420V/R128A): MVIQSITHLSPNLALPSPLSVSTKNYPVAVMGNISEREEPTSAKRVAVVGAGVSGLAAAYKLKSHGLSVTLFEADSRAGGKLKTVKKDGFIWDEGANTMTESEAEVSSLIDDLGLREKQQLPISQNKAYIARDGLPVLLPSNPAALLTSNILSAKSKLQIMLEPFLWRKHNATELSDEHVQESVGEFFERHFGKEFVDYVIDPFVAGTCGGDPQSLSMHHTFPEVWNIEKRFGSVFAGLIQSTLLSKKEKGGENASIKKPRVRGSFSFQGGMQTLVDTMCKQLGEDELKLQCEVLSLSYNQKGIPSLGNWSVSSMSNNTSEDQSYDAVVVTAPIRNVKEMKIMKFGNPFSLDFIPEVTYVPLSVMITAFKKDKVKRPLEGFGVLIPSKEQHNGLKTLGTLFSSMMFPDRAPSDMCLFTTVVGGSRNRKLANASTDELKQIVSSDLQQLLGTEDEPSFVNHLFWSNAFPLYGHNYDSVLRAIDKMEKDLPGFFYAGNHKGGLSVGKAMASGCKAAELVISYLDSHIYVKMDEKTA

[2] = target: Variant PPO Enzyme R128A, F420M (Amaranthus PPO2) (Amaranthus tuberculatus, UniProt Q0NZW9, F420M/R128A); type: biochemical
Chain of Variant PPO Enzyme R128A, F420M (Amaranthus PPO2) (Q0NZW9 1-534 F420M/R128A): as the sequence (Q0NZW9 1-534 F420V/R128A) above, with V420M counted along it

[3] = target: Variant PPO Enzyme L397Q, F420V (Amaranthus PPO2) (Amaranthus tuberculatus, UniProt Q0NZW9, F420V/L397Q); type: biochemical
Chain of Variant PPO Enzyme L397Q, F420V (Amaranthus PPO2) (Q0NZW9 1-534 F420V/L397Q): as the sequence (Q0NZW9 1-534 F420V/R128A) above, with A128R, L397Q counted along it

[4] = target: Variant PPO Enzyme L397Q, F420M (Amaranthus PPO2) (Amaranthus tuberculatus, UniProt Q0NZW9, F420M/L397Q); type: biochemical
Chain of Variant PPO Enzyme L397Q, F420M (Amaranthus PPO2) (Q0NZW9 1-534 F420M/L397Q): as the sequence (Q0NZW9 1-534 F420V/R128A) above, with A128R, L397Q, V420M counted along it

[5] = target: Variant PPO Enzyme L397Q (Amaranthus PPO2) (Amaranthus tuberculatus, UniProt Q0NZW9, L397Q); type: biochemical
Chain of Variant PPO Enzyme L397Q (Amaranthus PPO2) (Q0NZW9 1-534 L397Q): as the sequence (Q0NZW9 1-534 F420V/R128A) above, with A128R, L397Q, V420F counted along it

[6] = target: Variant PPO Enzyme F420V (Amaranthus PPO2) (Amaranthus tuberculatus, UniProt Q0NZW9, F420V); type: biochemical
Chain of Variant PPO Enzyme F420V (Amaranthus PPO2) (Q0NZW9 1-534 F420V): as the sequence (Q0NZW9 1-534 F420V/R128A) above, with A128R counted along it

[7] = target: Variant PPO Enzyme F420M (Amaranthus PPO2) (Amaranthus tuberculatus, UniProt Q0NZW9, F420M); assay: biochemical; type: biochemical
Chain of Variant PPO Enzyme F420M (Amaranthus PPO2) (Q0NZW9 1-534 F420M): as the sequence (Q0NZW9 1-534 F420V/R128A) above, with A128R, V420M counted along it

[8] = test system: Transgenic T2 Arabidopsis plants harboring PPO inhibitor tolerance trait; assay: Lab based germination assay in 48-well plates (Table i); type: in vivo, Arabidopsis thaliana
[9] = target: Variant PPO Enzyme L397E, F420M (Amaranthus PPO2) (Amaranthus tuberculatus, UniProt Q0NZW9, F420M/L397E); type: biochemical
Chain of Variant PPO Enzyme L397E, F420M (Amaranthus PPO2) (Q0NZW9 1-534 F420M/L397E): as the sequence (Q0NZW9 1-534 F420V/R128A) above, with A128R, L397E, V420M counted along it

[10] = read-out: Variant PPO Enzyme IC50

CCOC(=O)COc1ncccc1Oc1cc(-n2c(=O)cc(C(F)(F)F)n(C)c2=O)c(F)cc1Cl [Uracilpyridine 1, ethyl 2-[[3-[2-chloro-4-fluoro-5-[3-methyl-2,6-dioxo-4-(trifluoromethyl)pyrimiclin-1-yl]phenoxy]-2-pyridyl]oxy]acetate] was tested, and the IC50 [1, 10] was 162 nM and 280 nM, the IC50 [2] was 61.6 nM and the IC50 [3] was 2260 nM. It also gave an IC50 [4] of 429 nM, an IC50 [5] of 2.38 nM and an IC50 [6] of 66.4 nM. For the same compound, the IC50 [7, 10] was 38.1 nM and 46.9 nM, the “Tolerance Factor” value ([8]; construct AMATU_PPO2_F420M (Amaranthus tuberculatus), in comparison to wild type plants) was 110 and the “Tolerance Factor” value ([8]; construct AMATU_PPO2_L397D (Amaranthus tuberculatus), in comparison to wild type plants) was 50. For the same compound, the “Tolerance Factor” value ([8]; construct AMATU_PPO2_L397D_F420V (Amaranthus tuberculatus), in comparison to wild type plants) was 41, the “Tolerance Factor” value ([8]; construct AMATU_PPO2_R128A_F420M (Amaranthus tuberculatus), in comparison to wild type plants) was 50 and the “Tolerance Factor” value ([8]; construct AMATU_PPO2_R128A_F420V (Amaranthus tuberculatus), in comparison to wild type plants) was 75. The “Tolerance Factor” value ([8]; construct AMATU_PPO2_WT (Amaranthus tuberculatus), growth inhibition in comparison to wild type plants) was 6.

CCOC(=O)COc1ncccc1Oc1nc(-n2c(=O)cc(C(F)(F)F)n(C)c2=O)c(F)cc1Cl [Uracilpyridine 2, ethyl 2-[[3-[[3-chloro-5-fluoro-6-[3-methyl-2,6-dioxo-4-(trifluoromethyl)pyrimidin-1-yl]-2-pyridyl]oxy]-2-pyridyl]oxy]acetate] gave an IC50 [1] of 149 nM, an IC50 [2] of 97.4 nM and an IC50 [7] of 45.7 nM.

For CCOC(=O)COc1ccccc1Oc1nc(-n2c(=O)cc(C(F)(F)F)n(C)c2=O)c(F)cc1Cl [Uracilpyridine 4, ethyl 2-[2-[[3-chloro-5-fluoro-6-[3-methyl-2,6-dioxo-4-(trifluoromethyl)pyrimidin-1-yl]-2-pyridyl]oxy]phenoxy]acetate], the IC50 [2] was 69.4 nM.

Cn1c(C(F)(F)F)cc(=O)n(-c2nc(Oc3ccccc3OCC(=O)NS(C)(=O)=O)c(Cl)cc2F)c1=O [Uracilpyridine 10, 2-[2-[[3-chloro-5-fluoro-6-[3-methyl-2,6-dioxo-4-(trifluoromethyl)pyrimidin-1-yl]-2-pyridyl]oxy]phenoxy]-N-methylsulfonyl-acetamide] showed an IC50 [2] of 1670 nM and an IC50 [9] of 6510 nM.

With CCOC(=O)COc1ccccc1Oc1nc(-n2c(=O)c(C)c(C(F)(F)F)n(C)c2=O)c(F)cc1Cl [Uracilpyridine 12, ethyl 2-[2-[[3-chloro-6-[3,5-dimethyl-2,6-dioxo-4-(trifluoromethyl)pyrimidin-1-yl]-5-fluoro-2-pyridyl]oxy]phenoxy]acetate] the IC50 [2] was 114 nM.

For C=CCOC(=O)COc1ncccc1Oc1nc(-n2c(=O)cc(C(F)(F)F)n(C)c2=O)c(F)cc1Cl [Uracilpyridine 13, allyl 2-[[3-[[3-chloro-5-fluoro-6-[3-methyl-2,6-dioxo-4-(trifluoromethyl)pyrimidin-1-yl]-2-pyridyl]oxy]-2-pyridyl]oxy]acetate], the IC50 [2] was 91.8 nM.

Work on C#CCOC(=O)COc1ncccc1Oc1nc(-n2c(=O)cc(C(F)(F)F)n(C)c2=O)c(F)cc1Cl [Uracilpyridine 14, prop-2-ynyl 2-[[3-[[3-chloro-5-fluoro-6-[3-methyl-2,6-dioxo-4-(trifluoromethyl)pyrimidin-1-yl]-2-pyridyl]oxy]-2-pyridyl]oxy]acetate] yielded an IC50 [2] of 158 nM.

Compound Cn1c(C(F)(F)F)cc(=O)n(-c2nc(Oc3cccnc3OCC(=O)OCC3CC3)c(Cl)cc2F)c1=O [Uracilpyridine 15, cyclopropylmethyl 2-[[3-[[3-chloro-5-fluoro-6-[3-methyl-2,6-dioxo-4-(trifluoromethyl)pyrimidin-1-yl]-2-pyridyl]oxy]-2-pyridyl]oxy]acetate] has an IC50 [2] of 42.9 nM.

Work on Cn1c(C(F)(F)F)cc(=O)n(-c2nc(Oc3cccnc3OCC(=O)OCC(F)F)c(Cl)cc2F)c1=O [Uracilpyridine 16, 2,2-difluoroethyl 2-[[3-[[3-chloro-5-fluoro-6-[3-methyl-2,6-dioxo-4-(trifluoromethyl)pyrimidin-1-yl]-2-pyridyl]oxy]-2-pyridyl]oxy]acetate] yielded an IC50 [2] of 89 nM.

CC(C)COC(=O)COc1ncccc1Oc1nc(-n2c(=O)cc(C(F)(F)F)n(C)c2=O)c(F)cc1Cl [Uracilpyridine 17, isobutyl 2-[[3-[[3-chloro-5-fluoro-6-[3-methyl-2,6-dioxo-4-(trifluoromethyl)pyrimidin-1-yl]-2-pyridyl]oxy]-2-pyridyl]oxy]acetate] was tested, and the IC50 [2] was 46.1 nM.

In the case of CCOC(=O)COC(=O)COc1ncccc1Oc1nc(-n2c(=O)cc(C(F)(F)F)n(C)c2=O)c(F)cc1Cl [Uracilpyridine 18, (2-ethoxy-2-oxo-ethyl) 2-[[3-[[3-chloro-5-fluoro-6-[3-methyl-2,6-dioxo-4-(trifluoromethyl)pyrimidin-1-yl]-2-pyridyl]oxy]-2-pyridyl]oxy]acetate], the IC50 [2] is reported as 116 nM.

With COCCOC(=O)COc1ncccc1Oc1nc(-n2c(=O)cc(C(F)(F)F)n(C)c2=O)c(F)cc1Cl [Uracilpyridine 19, 2-methoxyethyl 2-[[3-[[3-chloro-5-fluoro-6-[3-methyl-2,6-dioxo-4-(trifluoromethyl)pyrimidin-1-yl]-2-pyridyl]oxy]-2-pyridyl]oxy]acetate] the IC50 [2] was 125 nM.
